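Tested at 5 concentrations; 48 h exposure; 96-well plates; endpoints linearly interpolated, else capped at highest concentration. The concentration for 50% growth inhibition is given as GI50. TGI denotes the concentration required for complete inhibition of growth.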
Tests used:
Assay in all cases: NCI anticancer screen, dose series, 48 h
[1] = system: CCRF-CEM leukemia
[2] = system: UACC-62 melanoma
[3] = system: MALME-3M melanoma
[4] = system: UO-31 renal
[5] = system: RXF 393 renal
[6] = system: MDA-MB-231 breast
[7] = system: MDA-MB-468 breast
[8] = system: K-562 leukemia
[9] = system: M14 melanoma
[10] = system: HL-60(TB) leukemia
[11] = system: SF-539 CNS
[12] = system: TK-10 renal
[13] = system: MCF7 breast
[14] = system: DU-145 prostate
[15] = system: HT29 colon
[16] = system: OVCAR-4 ovarian
[17] = system: BT-549 breast
[18] = system: MDA-MB-435
[19] = system: SN12C renal
[20] = system: HCT-116 colon
[21] = system: HOP-62 NSCLC
[22] = system: OVCAR-3 ovarian
[23] = system: SW-620 colon
[24] = system: NCI-H23 lung
[25] = system: 786-0 renal
[26] = system: CAKI-1 renal
[27] = system: SF-295 CNS
[28] = system: SK-MEL-28 melanoma
[29] = system: KM12 colon
[30] = system: NCI-H460 lung
[31] = system: SK-OV-3 ovarian
[32] = system: SF-268 CNS
[33] = system: COLO 205 colon
[34] = system: SK-MEL-2 melanoma
[35] = system: HOP-92 NSCLC
[36] = system: PC-3 prostate
[37] = system: IGROV1 ovarian
[38] = system: SK-MEL-5 melanoma
[39] = system: OVCAR-5 ovarian
[40] = system: SNB-19 CNS
[41] = system: HS 578T breast
[42] = system: NCI-H522 lung
[43] = system: MOLT-4 leukemia
[44] = system: T-47D breast
[45] = system: SNB-75 CNS
[46] = system: LOX IMVI melanoma
[47] = system: UACC-257 melanoma
[48] = system: ACHN renal
[49] = system: OVCAR-8 ovarian
[50] = system: A498 renal
[51] = system: SR leukemia
[52] = system: HCC-2998 colon
[53] = system: U251 CNS
[54] = system: A549 NSCLC
[55] = system: HCT-15 colon
[56] = system: NCI-H226 lung
[57] = system: EKVX NSCLC
[58] = system: RPMI-8226 leukemia

Work on `COc1cccc(-c2c(C#N)c(-c3ccc(Cl)cc3)nc3n[nH]c(-c4ccc(Cl)cc4)c23)c1` yielded a GI50 [1] of 6.56 µM, a TGI [1] of over 100 µM and a GI50 [2] of 12.6 µM. For the same compound, the TGI [2] was 29.1 µM, the GI50 [3] was 11.5 µM and the TGI [3] was 31.7 µM. The GI50 [4] was 2.38 µM, the TGI [4] was 72.7 µM and the GI50 [5] was 11.5 µM. For the same compound, the TGI [5] was 79.3 µM, the GI50 [6] was 12.8 µM and the TGI [6] was 35.1 µM. The GI50 [7] was 19.1 µM, the TGI [7] was over 100 µM and the GI50 [8] was 4.01 µM. For the same compound, the TGI [8] was 78.6 µM, the GI50 [9] was 9.82 µM and the TGI [9] was 34.1 µM. For the same compound, the GI50 [10] was 4.77 µM, the TGI [10] was 43.5 µM and the GI50 [11] was 8.28 µM. The TGI [11] was 25.9 µM, the GI50 [12] was 38 µM and the TGI [12] was over 100 µM. For the same compound, the GI50 [13] was 6 µM, the TGI [13] was over 100 µM and the GI50 [14] was 21 µM. The TGI [14] was over 100 µM, the GI50 [15] was 9.76 µM and the TGI [15] was 29.8 µM. For the same compound, the GI50 [16] was 4.96 µM, the TGI [16] was 86.4 µM and the GI50 [17] was 6.07 µM. The TGI [17] was 27.4 µM, the GI50 [18] was 13.4 µM and the TGI [18] was 37.2 µM. It also gave a GI50 [19] of 12 µM, a TGI [19] of over 100 µM and a GI50 [20] of 4.66 µM. The TGI [20] was 26.2 µM, the GI50 [21] was 16.4 µM and the TGI [21] was 80.6 µM. The GI50 [22] was 9.27 µM, the TGI [22] was 80 µM and the GI50 [23] was 21.2 µM. The TGI [23] was over 100 µM, the GI50 [24] was 13.6 µM and the TGI [24] was over 100 µM. For the same compound, the GI50 [25] was 11.2 µM, the TGI [25] was over 100 µM and the GI50 [26] was 7.91 µM. For the same compound, the TGI [26] was 32.9 µM, the GI50 [27] was 12.1 µM and the TGI [27] was 33 µM. It also gave a GI50 [28] of 17.8 µM, a TGI [28] of 74.8 µM and a GI50 [29] of 8.81 µM. The TGI [29] was over 100 µM, the GI50 [30] was 13.5 µM and the TGI [30] was 46.7 µM. For the same compound, the GI50 [31] was 18.1 µM, the TGI [31] was 98.7 µM and the GI50 [32] was 14.8 µM. It also gave a TGI [32] of over 100 µM, a GI50 [33] of 11.3 µM and a TGI [33] of 25.2 µM. The GI50 [34] was 13.9 µM, the TGI [34] was 30.1 µM and the GI50 [35] was 2.35 µM. For the same compound, the TGI [35] was 9.24 µM, the GI50 [36] was 3.19 µM and the TGI [36] was over 100 µM. For the same compound, the GI50 [37] was 16 µM, the TGI [37] was 68 µM and the GI50 [38] was 12.4 µM. It also gave a TGI [38] of 26.3 µM, a GI50 [39] of 11.2 µM and a TGI [39] of 50.8 µM. For the same compound, the GI50 [40] was 20 µM, the TGI [40] was over 100 µM and the GI50 [41] was 11.1 µM. It also gave a TGI [41] of 89.6 µM, a GI50 [42] of 16.1 µM and a TGI [42] of 92.7 µM. It also gave a GI50 [43] of 3.45 µM, a TGI [43] of 49.2 µM and a GI50 [44] of 3.42 µM. The TGI [44] was 77.8 µM, the GI50 [45] was 12.7 µM and the TGI [45] was 64.3 µM. The GI50 [46] was 10.6 µM, the TGI [46] was 28.9 µM and the GI50 [47] was 22.7 µM. The TGI [47] was 93.3 µM, the GI50 [48] was 13.6 µM and the TGI [48] was over 100 µM. For the same compound, the GI50 [49] was 20.9 µM, the TGI [49] was over 100 µM and the GI50 [50] was 33.3 µM. For the same compound, the TGI [50] was over 100 µM, the GI50 [51] was 7.09 µM and the TGI [51] was 50.3 µM. It also gave a GI50 [52] of 6.14 µM, a TGI [52] of 31 µM and a GI50 [53] of 13.6 µM. It also gave a TGI [53] of over 100 µM, a GI50 [54] of 15.1 µM and a TGI [54] of over 100 µM. It also gave a GI50 [55] of 4.16 µM, a TGI [55] of 27.8 µM and a GI50 [56] of 11.9 µM. The TGI [56] was 49.1 µM, the GI50 [57] was 11.8 µM and the TGI [57] was over 100 µM. For the same compound, the GI50 [58] was 4.44 µM and the TGI [58] was over 100 µM.

Source: PubChem BioAssay (NCI)
